According to patent US4851385A, “LHRH antagonist analogs having low histamine-release activity” (Indiana University Foundation, priority 1987, dated 1989):
Where a SMILES comes first, the peptide text is derived from it. [ ]: non-standard residue; d: D form. dPhe(4-Cl) = N[C@H](Cc1ccc(Cl)cc1)C(=O)O; d2Nal = N[C@H](Cc1ccc2ccccc2c1)C(=O)O

Experiments:
histamine release = details: cited from earlier work
rat mast cells [1] = details: mast cell supernatants assayed concomitantly for lactic dehydrogenase
From the text: The ED50 values of Table I (mean effective dose from dose response curves), are expressed in μg/ml. […] For routine testing, mast cells were not purified.

rat = assay: Standard antiovulatory assay (Corbin and Beattie); type: in vivo
Protocol: Antiovulatory activity was determined by standard antiovulatory assays conducted by the method described by Corbin and Beattie, Endocrine Research Communications 2 1 (1975) and results are given in Table I.

rat mast cells [2] = assay: In vitro histamine releasing activity assay (rat peritoneal mast cell suspension, fluorometric histamine assay); type: cell-based; details: mean effective dose from dose response curves, 15 min at 37° C., duplicate or triplicate, cells from at least three rats
Protocol: The in vitro histamine release activity of the analogs was assayed by the method described below and the results are given in Table I.
A suspension of rat mast cells was added to increasing concentrations of peptide and the mixture was incubated for a few minutes followed by centrifugation to collect the histamine in the supernatant. A PIPES (piperazine-N,N'-bis[2-ethanesulfonic acid]) medium buffered at pH 7.4 containing NaCl119 mM, KCl5 mM, PIPES 25mM, NaOH 40 mM, glucose 5.6 mM, CaCl2 1 mM and 0.1% bovine serum albumin was used. This was designated as PIPES AC. Peptides were dissolved in double distilled H2 O at a concentration of 2 mg ml and stored at -20° C. They were thawed just prior to testing, duluted in PIPES AC and prewarmed for 5 min. at 37° C. Peptides studied were stable to heating at 56° C. for 2 hr., and to freezing and thawing.
Peritoneal cells were collected from male Sprague-Dawley rats weighing 200 to 250 gm and purchased from Harlan (Madison, Wis.). After euthanasia by CO2, the peritoneal cavity was washed with 50 ml PIPES AC medium containing 20 units of heparin. Following centrifugation at 200×g for 8 min. at 4° C., cells were washed again and finally resuspended to a concentration of 8 to 24×10^5 total leukocytes/ml in PIPES AC. This suspension contained approximately 5-10% mast cells. […]

## CC(=O)N[C@H](Cc1ccc2ccccc2c1)C(=O)N[C@H](Cc1ccc(Cl)cc1)C(=O)N[C@H](Cc1c[nH]c2ccccc12)C(=O)N[C@@H](CO)C(=O)N[C@@H](Cc1ccc(O)cc1)C(=O)N[C@H](CCCNC(=N)N)C(=O)N[C@@H](CC(C)C)C(=O)N[C@@H](CCCNC(=N)N)C(=O)N1CCC[C@H]1C(=O)N[C@H](C)C(N)=O [Compound 1, [N-Ac-D-Nal(2)^1, D-p-Cl-Phe^2, D-Trp^3, D-Arg^6, D-Ala^10] LHRH] (Ac-[d2Nal][dPhe(4-Cl)][dW]SY[dR]LRP[dA]-NH2)
Histamine release; Karten and Rivier 1986
  histamine releasing activity (in words): potent histamine releasing anlog

## CC(C)C[C@H](NC(=O)CNC(=O)[C@H](Cc1ccc(O)cc1)NC(=O)[C@H](CO)NC(=O)[C@H](Cc1c[nH]c2ccccc12)NC(=O)[C@H](Cc1cnc[nH]1)NC(=O)[C@@H]1CCC(=O)N1)C(=O)N[C@@H](CCCNC(=N)N)C(=O)N1CCC[C@H]1C(=O)NCC(N)=O [LHRH, luteinizing hormone-releasing hormone]
Rat mast cells [1]
  cell toxicity by release of lactic dehydrogenase: no evidence seen of cell toxicity

## [Ac-2-D-Nal^1, α-Me-4-C1-D-Phe^2, D-Trp^3, Arg^5, D-Tyr^6, D-Ala^10 ] LHRH
Histamine release; Roeske et al. 1985
  times less potent in histamine releasing activity than the synthetic D-Arg6 antagonists: 20-40 times

## [Ac-D-2-Nal^1, D-4-C1-Phe^2, D-Trp^3, D-N^ε -Heptyl Lys, Nε-Heptyl Lys^8, D-Ala^10 ]LHRH
rat; N-alkylation of Lys 6 and 8 with a 7-carbon moiety
  antiovulatory activity (in words): lowers antiovulatory activity markedly

## [N--Ac--D-Nal(2)^1,D-C--α-Me--pCl--Phe^2,D-Pal(3)^3,D-Arg^6,hArg(Et2)^8,D-Ala^10 ]LHRH [Compound 2]
rat; corn oil vehicle, ≥ = significant reduction in rats ovulating but ED100 not achieved at the dose, ≥≥ = inactive at the dose tested
  Ovulation Inhibition, Corn Oil, ED100: 1.0 ug/rat
Rat mast cells [2]
  In Vitro Histamine Release ED50: 4.9 µg/mL

## [N-Ac-D-Nal(2)^1, D-pC1-Phe^2, D-Pal^3, Arg^5, D-Tyr^6, D-Ala^10 ]LHRH
Histamine release; from Roeske et al. 1985
  mean effective dose for histamine release (known analog): about 4.0 ug/ml
